From PubChem BioAssay (NCI)
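Five compound concentrations were applied to cells in 96-well plates for 48 hours; endpoints were derived by simple linear interpolation of the resulting dose-response curve. TGI: total growth inhibition.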

What was measured:
Experiment in all cases: NCI tumour cell line growth inhibition, 48 h
[1] = test system: A498 renal
[2] = test system: ACHN renal
[3] = test system: HCC-2998 colon
[4] = test system: HOP-62 NSCLC
[5] = test system: HS 578T breast
[6] = test system: IGROV1 ovarian
[7] = test system: LOX IMVI melanoma
[8] = test system: MALME-3M melanoma
[9] = test system: MDA-N
[10] = test system: NCI-H226 lung
[11] = test system: NCI/ADR-RES ovarian
[12] = test system: OVCAR-3 ovarian
[13] = test system: RPMI-8226 leukemia
[14] = test system: RXF 393 renal
[15] = test system: SF-268 CNS
[16] = test system: SF-539 CNS
[17] = test system: SK-MEL-28 melanoma
[18] = test system: SN12C renal
[19] = test system: U251 CNS
[20] = test system: SNB-19 CNS

| Structure (SMILES) | TGI [1] [µM] | TGI [2] [µM] | TGI [3] [µM] | TGI [4] [µM] | TGI [5] [µM] | TGI [6] [µM] | TGI [7] [µM] | TGI [8] [µM] | TGI [9] [µM] | TGI [10] [µM] | TGI [11] [µM] | TGI [12] [µM] | TGI [13] [µM] | TGI [14] [µM] | TGI [15] [µM] | TGI [16] [µM] | TGI [17] [µM] | TGI [18] [µM] | TGI [19] [µM] | TGI [20] [µM] |
| --- | --- | --- | --- | --- | --- | --- | --- | --- | --- | --- | --- | --- | --- | --- | --- | --- | --- | --- | --- | --- |
| CC1(C)CCCC2(C)C3=C(CCC12)C(=O)OC3 (stereo not drawn) | > 100 | > 100 | > 100 | > 100 | > 100 | > 100 | > 100 | > 100 | > 100 | > 100 | > 100 | > 100 | 68.5 | > 100 | > 100 | > 100 | > 100 | > 100 | > 100 | – |
| O=C1CCN=C(NC(=O)C(F)(F)F)N1CCc1c[nH]c2ccccc12 | > 100 | > 100 | > 100 | > 100 | > 100 | > 100 | > 100 | > 100 | > 100 | > 100 | > 100 | > 100 | > 100 | > 100 | > 100 | > 100 | > 100 | > 100 | > 100 | > 100 |
| CCOc1cc(/C=N\O)cc(/C=N/O)c1O | 51.1 | 59.4 | > 100 | > 100 | > 100 | – | 71.9 | > 100 | > 100 | > 100 | > 100 | > 100 | > 100 | 30.5 | 64.1 | 61.1 | > 100 | > 100 | 84.3 | > 100 |
| COc1cc(/C=C2/CCCc3ccccc3C2=O)cc(OC)c1OC | > 75 | > 100 | > 74 | > 58.9 | > 84.2 | > 100 | > 77 | 29.5 | > 43.8 | > 79.8 | > 100 | > 55.6 | > 78.9 | > 100 | > 52.3 | > 64.7 | > 100 | > 51.4 | > 88.4 | > 100 |
| Clc1ccc(C2ON=C(c3ccccc3)N2C23CC4CC(CC(C4)C2)C3)cc1Cl (stereo not drawn) | > 10 | > 10 | > 10 | > 10 | > 10 | > 10 | > 10 | > 10 | > 10 | > 10 | > 10 | > 10 | > 10 | > 10 | > 10 | > 10 | > 10 | > 10 | > 10 | > 10 |
| C=CC(C)CCC(C/C=C(\C)CCCC(C)C)C(=C)CCCC(C)C (stereo not drawn) | > 100 | > 100 | > 100 | > 100 | > 100 | > 100 | > 100 | > 100 | > 100 | > 100 | > 100 | > 100 | > 100 | > 100 | > 100 | > 100 | > 100 | > 100 | > 100 | > 100 |
| O=C1CC(C(O)C(O)C(O)CO)CC(=O)N1 (stereo not drawn) | > 100 | > 100 | > 100 | > 100 | > 100 | > 100 | > 100 | > 100 | > 100 | > 100 | > 100 | > 100 | > 100 | > 100 | > 100 | > 100 | > 100 | > 100 | > 100 | > 100 |
| O=C(O)c1[nH]c(=O)[nH]c(=O)c1CN1CCCCC1 | > 100 | > 100 | > 100 | > 100 | > 100 | > 100 | > 100 | > 100 | > 100 | > 100 | > 100 | > 100 | > 100 | > 100 | > 100 | – | > 100 | > 100 | > 100 | > 100 |
| CC(=O)OC(=C(C#N)C#N)c1nccnc1C(=O)O | > 100 | > 100 | > 100 | – | > 100 | > 100 | > 100 | > 100 | > 100 | > 100 | > 100 | > 100 | > 100 | > 100 | > 100 | > 100 | > 100 | > 100 | > 100 | > 100 |
| Nc1nc(Cl)cc(NCC2(CO)CC(CCCc3ccccc3)C2)n1 (stereo not drawn) | > 100 | > 100 | > 100 | > 100 | > 100 | > 100 | > 100 | > 100 | > 100 | > 100 | > 100 | > 100 | > 100 | > 78.2 | > 100 | > 100 | > 100 | > 100 | > 100 | > 100 |
| O=c1[nH]c(=S)n(-c2cccc3ccccc23)c(O)c1/C=C1\C=Nc2ccccc21 | 4.25 | 5.73 | 3.5 | 10.7 | 58.8 | 4.76 | 3.81 | 5.8 | 4.63 | 5.8 | 10.5 | 12.6 | 4.96 | 3.43 | 11.4 | 5.38 | 6.06 | 5.29 | 5.45 | 11.3 |
| CC(C)C(C)C(O)C(O)C(C)C1CCC2C3COC(=O)C4CC(O)C(O)CC4(C)C3CCC12C (stereo not drawn) | > 100 | > 100 | > 100 | – | > 100 | > 100 | > 100 | > 100 | > 100 | > 100 | > 100 | – | – | 67.4 | > 100 | > 100 | > 100 | > 100 | > 100 | > 100 |
